The test deals with T1, human ETB receptors (Homo sapiens, UniProt P24530).
T1 construct: host or cells: CHO cells
T1 sequence (P24530 27-442): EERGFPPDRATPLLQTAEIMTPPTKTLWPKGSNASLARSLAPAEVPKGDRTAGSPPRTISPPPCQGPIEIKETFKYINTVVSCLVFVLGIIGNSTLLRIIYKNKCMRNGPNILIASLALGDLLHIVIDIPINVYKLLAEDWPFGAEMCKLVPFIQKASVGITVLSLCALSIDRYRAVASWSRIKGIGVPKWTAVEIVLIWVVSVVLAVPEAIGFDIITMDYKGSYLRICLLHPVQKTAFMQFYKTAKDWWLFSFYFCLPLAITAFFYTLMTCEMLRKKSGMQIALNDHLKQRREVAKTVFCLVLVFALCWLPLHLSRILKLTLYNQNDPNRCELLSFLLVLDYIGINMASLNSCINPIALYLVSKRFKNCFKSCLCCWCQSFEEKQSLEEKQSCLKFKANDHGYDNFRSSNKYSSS
The test is described as follows: In vitro antagonistic effect on human ETB receptors (Ca2+ fluorescence, transfected CHO cells). Format: cell-based. As to conditions: 0.3 nM endothelin-1. On the procedure: The antagonist activities of the compounds on human ETB receptors expressed in transfected CHO cells were assessed by measuring the effects of the compounds on changes in cytoplasmic Ca^2+ ion signaling induced by an agonist of human ETB receptor using a fluorescence assay. The functional activity of the ETB receptor antagonistic effect was tested at Eurofins-Cerep SA according to current standard operating procedures.
• 1. Cells were suspended in DMEM buffer (Invitrogen) and then distributed at a density of 3×10^4 cells/well in 384 plates (100 μL/well). • 2. HBSS buffer (Invitrogen) supplemented with 20 mM Hepes (Invitrogen) (pH 7.4) was mixed with the fluorescent probe (Fluo4 Direct, Invitrogen) and added to each well. Equilibrated with the cells for 60 minutes at 37° C. and then for 15 minutes at 22° C. • 3. The assay plate was placed in a microplate reader (CellLux, PerkinElmer). DMSO solution of the test compound and the positive control or HBSS buffer in appropriate concentration was added. […] Then the change in fluorescence intensity was measured. The fluorescence intensity is in proportion to the Ca^2+ ion concentration of the free cytosol. • 4. […] The standard positive control was BQ-788 and several concentrations were tested in each experiment and the data was analyzed using Prism to produce a concentration-response curve to calculate the IC50 values of the compounds. […]

For orientation: IC50 means the concentration that inhibits the measured activity by half. A high value points to weaker potency in that assay. Compound `COCCNS(=O)(=O)Nc1ncnc(OCCOc2ncc(Br)cn2)c1-c1ccc2c(c1)OCO2` gave a concentration for half-maximal inhibition (IC50) of 32 µM.

These data come from patent publication US12297192B2, “Crystal form of pyrimidine sulfonamide compound and preparation method therefor” (WUXI BIOCITY BIOPHARMACEUTICS CO., LTD., priority 2019, dated 2025).
